Measurements taken from patent US8143393B2, “Substituted 4-amino-pyrrolotriazine derivatives useful for treating hyper-proliferative disorders and diseases associated with angiogenesis” (Bayer HealthCare LLC, priority 2005, dated 2012).

Molecular target: T1, FGFR-1 (Homo sapiens, UniProt P11362)
T1 construct: GST; made in house
Experiment: FGFR-1 TR-FRET biochemical assay
Summary of the method: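 In this LANCE time-resolved FRET format, compounds at final 10 μM–0.128 nM (1% DMSO, 1:5 series) were preincubated before enzyme start. Reactions ran for one hour at room temperature with 0.6 uM ATP, 25 nM biotinylated poly GT and 5 nM GST-tagged FGFR1. Inhibition was calculated from the 665/615 nm ratio minus the ATP-free background.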

[1] = 0.6 uM ATP, 5 nM FGFR1-GST, bounds given in nM

T1 sequence (P11362 22-822): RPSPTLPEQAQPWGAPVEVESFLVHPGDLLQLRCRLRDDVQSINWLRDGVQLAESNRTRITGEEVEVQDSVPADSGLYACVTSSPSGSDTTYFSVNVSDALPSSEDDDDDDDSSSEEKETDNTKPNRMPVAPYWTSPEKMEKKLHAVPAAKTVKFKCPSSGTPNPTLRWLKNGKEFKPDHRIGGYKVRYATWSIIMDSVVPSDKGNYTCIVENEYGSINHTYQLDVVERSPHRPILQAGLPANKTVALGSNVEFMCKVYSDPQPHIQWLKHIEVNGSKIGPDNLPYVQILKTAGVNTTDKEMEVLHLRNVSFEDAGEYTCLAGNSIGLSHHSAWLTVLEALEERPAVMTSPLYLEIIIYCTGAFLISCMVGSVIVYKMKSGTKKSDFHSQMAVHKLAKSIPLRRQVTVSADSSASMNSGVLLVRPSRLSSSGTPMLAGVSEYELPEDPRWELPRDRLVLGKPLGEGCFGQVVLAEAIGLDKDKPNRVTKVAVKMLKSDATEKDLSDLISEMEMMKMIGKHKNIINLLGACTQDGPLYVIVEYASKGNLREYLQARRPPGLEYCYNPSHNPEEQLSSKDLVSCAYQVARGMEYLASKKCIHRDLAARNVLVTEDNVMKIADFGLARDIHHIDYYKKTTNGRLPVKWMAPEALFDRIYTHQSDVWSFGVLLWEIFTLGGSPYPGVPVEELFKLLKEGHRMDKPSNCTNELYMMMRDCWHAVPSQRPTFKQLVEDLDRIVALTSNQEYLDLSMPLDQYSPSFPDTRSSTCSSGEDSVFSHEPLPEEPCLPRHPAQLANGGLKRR

Row | Structure (SMILES) | IC50 [1] [nM] | IC50 (upper bound of the bin 'greater than 100 nM but less than 1 μM' (lower bound in E1)) [nM]
1 | Nc1ncnn2c(CCCN3CCSCC3)cc(-c3ccc(NC(=O)Nc4cc(C(F)(F)F)ccc4F)c(F)c3)c12 [Example 196, N-{4-4-[4-amino-7-(3-thiomorpholin-4-ylpropyl)pyrrolo[2,1-f][1,2,4]triazin-5-yl]-2-fluorophenyl}-N′-[2-fluoro-5-(trifluoromethyl)phenyl]urea] | 10 to 100 | 
2 | CC(C)(C)OC(=O)N1CCC(c2cc(-c3ccc(NC(=O)Nc4cc(C(F)(F)F)ccc4F)c(F)c3)c3c(N)ncnn23)C1 (stereo not shown) [Example 198, tert-butyl 3-{4-amino-5-[3-fluoro-4-({[2-fluoro-5-(trifluoromethyl)phenyl]carbamoyl}amino)phenyl]pyrrolo[2,1-f][1,2,4]triazin-7-yl}pyrrolidine-1-carboxylate] | > 100 | < 1000
3 | Nc1ncnn2c(C3CCNC3)cc(-c3ccc(NC(=O)Nc4cc(C(F)(F)F)ccc4F)c(F)c3)c12 (stereo not shown) [Example 200, N-[4-(4-amino-7-pyrrolidin-3-ylpyrrolo[2,1-f][1,2,4]triazin-5-yl)-2-fluorophenyl]-N′-[2-fluoro-5-(trifluoromethyl)phenyl]urea] | 10 to 100 | 
4 | CN(C)C(=O)N1CCC(c2cc(-c3ccc(NC(=O)Nc4cc(C(F)(F)F)ccc4F)c(F)c3)c3c(N)ncnn23)C1 (stereo not shown) [Example 203, 3-{4-amino-5-[3-fluoro-4-({[2-fluoro-5-(trifluoromethyl)phenyl]carbamoyl}amino)phenyl]pyrrolo[2,1-f][1,2,4]triazin-7-yl}-N,N-dimethylpyrrolidine-1-carboxamide] | < 10 | 
5 | Nc1ncnn2c(C3CCN(C(=O)CO)C3)cc(-c3ccc(NC(=O)Nc4cc(C(F)(F)F)ccc4F)c(F)c3)c12 (stereo not shown) [Example 204, N-{4-[4-amino-7-(1-glycoloylpyrrolidin-3-yl)pyrrolo[2,1-f][1,2,4]triazin-5-yl]-2-fluorophenyl}-N′-[2-fluoro-5-(trifluoromethyl)phenyl]urea] | < 10 | 
6 | CC(=O)N1CCC(c2cc(-c3ccc(NC(=O)Nc4cc(C(F)(F)F)ccn4)c(F)c3)c3c(N)ncnn23)C1 (stereo not shown) [Example 205, N-{4-[7-(1-acetylpyrrolidin-3-yl)-4-aminopyrrolo[2,1-f][1,2,4]triazin-5-yl]-2-fluorophenyl}-N′-[4-(trifluoromethyl)pyridin-2-yl]urea] | < 10 | 
7 | Nc1ncnn2c(C3CCNC3)cc(-c3ccc(NC(=O)Nc4cc(C(F)(F)F)ccc4F)cc3)c12 (stereo not shown) [Example 206, 1-[4-(4-amino-7-pyrrolidin-3-ylpyrrolo[2,1-f][1,2,4]triazin-5-yl)phenyl]-3-[2-fluoro-5-(trifluoromethyl)phenyl]urea] | < 10 | 
8 | CC(C)(C)OC(=O)N1CCC(c2cc(-c3ccc(NC(=O)Nc4cc(C(F)(F)F)ccn4)c(F)c3)c3c(N)ncnn23)C1 (stereo not shown) [Example 208, tert-butyl 3-{4-amino-5-[3-fluoro-4-({[4-(trifluoromethyl)pyridin-2-yl]carbamoyl}amino)phenyl]pyrrolo[2,1-f][1,2,4]triazin-7-yl}pyrrolidine-1-carboxylate] | 10 to 100 | 
9 | CNC(=O)N1CCC(c2cc(-c3ccc(NC(=O)Nc4cc(C(F)(F)F)ccc4F)c(F)c3)c3c(N)ncnn23)CC1 [Example 209, 4-{4-amino-5-[3-fluoro-4-({[2-fluoro-5-(trifluoromethyl)phenyl]carbamoyl}amino)phenyl]pyrrolo[2,1-f][1,2,4]triazin-7-yl}-N-methylpiperidine-1-carboxamide] | 10 to 100 | 
10 | Nc1ncnn2c(CCN3CCOCC3)cc(-c3cc(F)c(NC(=O)Nc4cc(C(F)(F)F)ccc4F)cc3F)c12 [Example 211, N-{4-[4-amino-7-(2-morpholin-4-ylethyl)pyrrolo[2,1-f][1,2,4]triazin-5-yl]-2,5-difluorophenyl}-N′-[2-fluoro-5-(trifluoromethyl)phenyl]urea] | 10 to 100 | 
11 | Nc1ncnn2c(CCN3CCOCC3)cc(-c3ccc(NC(=O)Nc4cc(C(F)(F)F)ccc4F)c(F)c3)c12 [Example 212, N-{4-[4-amino-7-(2-morpholin-4-ylethyl)pyrrolo[2,1-f][1,2,4]triazin-5-yl]-2-fluorophenyl}-N′-[2-fluoro-5-(trifluoromethyl)phenyl]urea] | 10 to 100 | 
12 | CN1CCN(CCc2cc(-c3ccc(NC(=O)Nc4cc(C(F)(F)F)ccc4F)c(F)c3)c3c(N)ncnn23)CC1 [Example 214, N-(4-{4-amino-7-[2-(4-methylpiperazin-1-yl)ethyl]pyrrolo[2,1-f][1,2,4]triazin-5-yl}-2-fluorophenyl)-N′-[2-fluoro-5-(trifluoromethyl)phenyl]urea] | < 10 | 
13 | COC[C@@H]1CCCN1CCc1cc(-c2ccc(NC(=O)Nc3cc(C(F)(F)F)ccc3F)c(F)c2)c2c(N)ncnn12 [Example 215, N-[4-(4-amino-7-{2-[2-(methoxymethyl)pyrrolidin-1-yl]ethyl}pyrrolo-[2,1-f][1,2,4]triazin-5-yl)-2-fluorophenyl]-N′-[2-fluoro-5-(trifluoromethyl)phenyl]urea] | 10 to 100 | 
14 | Nc1ncnn2c(CCN3CCCC3)cc(-c3ccc(NC(=O)Nc4cc(C(F)(F)F)ccc4F)c(F)c3)c12 [Example 216, N-{4-[4-amino-7-(2-pyrrolidin-1-ylethyl)pyrrolo[2,1-f][1,2,4]triazin-5-yl]-2-fluorophenyl}-N′-[2-fluoro-5-(trifluoromethyl)phenyl]urea] | 10 to 100 | 
15 | Nc1ncnn2c(CCCN3CCOCC3)cc(-c3ccc(NC(=O)Nc4cc(C(F)(F)F)ccc4Cl)c(F)c3)c12 [Example 217, N-{4-[4-amino-7-(3-morpholin-4-ylpropyl)pyrrolo[2,1-f][1,2,4]triazin-5-yl]-2-fluorophenyl}-N′-[2-chloro-5-(trifluoromethyl)phenyl]urea] | 10 to 100 | 
16 | CC(=O)N1CCC(c2cc(-c3ccc(NC(=O)Nc4cc(C(F)(F)F)ccc4F)c(Cl)c3)c3c(N)ncnn23)CC1 [Example 219, N-{4-[7-(1-acetylpiperidin-4-yl)-4-aminopyrrolo[2,1-f][1,2,4]triazin-5-yl]-2-chlorophenyl}-N′-[2-fluoro-5-(trifluoromethyl)phenyl]urea] | < 10 | 
17 | Nc1ncnn2c(CCO)cc(-c3ccc(NC(=O)Nc4cc(C(F)(F)F)ccc4F)c(F)c3)c12 [Example 220, N-{4-[4-amino-7-(2-hydroxyethyl)pyrrolo[2,1-f][1,2,4]triazin-5-yl]-2-fluorophenyl}-N′-[2-fluoro-5-(trifluoromethyl)phenyl]urea] | < 10 | 
18 | Cc1cc(-c2cc(CCCN3CCOCC3)n3ncnc(N)c23)ccc1NC(=O)Nc1cc(C(F)(F)F)ccc1F [Example 221, N-{4-[4-amino-7-(3-morpholin-4-ylpropyl)pyrrolo[2,1-f][1,2,4]triazin-5-yl]-2-methylphenyl}-N′-[2-fluoro-5-(trifluoromethyl)phenyl]urea] | < 10 | 

Other lines, results leading:

Row | IC50 [1] [nM] | IC50 (upper bound of the bin 'greater than 100 nM but less than 1 μM' (lower bound in E1)) [nM] | Structure (SMILES)
19 | < 10 |  | CC(=O)N1CCN(CCCc2cc(-c3ccc(NC(=O)Nc4cc(C(F)(F)F)ccc4F)c(F)c3)c3c(N)ncnn23)CC1 [Example 188, N-(4-{7-[3-(4-acetylpiperazin-1-yl)propyl]-4-aminopyrrolo[2,1-f][1,2,4]triazin-5-yl}-2-fluorophenyl)-N′-[2-fluoro-5-(trifluoromethyl)phenyl]urea]
20 | < 10 |  | Nc1ncnn2c(CCCN3CCS(=O)(=O)CC3)cc(-c3ccc(NC(=O)Nc4cc(C(F)(F)F)ccc4F)c(F)c3)c12 [Example 189, N-(4-{4-amino-7-[3-(1,1-dioxidothiomorpholin-4-yl)propyl]pyrrolo[2,1-f][1,2,4]triazin-5-yl}-2-fluorophenyl)-N′-[2-fluoro-5-(trifluoromethyl)phenyl]urea]
21 | < 10 |  | Nc1ncnn2c(CCCN3CCOCC3)cc(-c3cc(F)c(NC(=O)Nc4cc(C(F)(F)F)ccc4F)cc3F)c12 [Example 190, N-{4-[4-amino-7-(3-morpholin-4-ylpropyl)pyrrolo[2,1-f][1,2,4]triazin-5-yl]-2,5-difluorophenyl}-N′-[2-fluoro-5-(trifluoromethyl)phenyl]urea]
22 | < 10 |  | Nc1ncnn2c(CCCN3CCOCC3)cc(-c3ccc(NC(=O)Nc4cc(C(F)(F)F)ccn4)c(F)c3)c12 [Example 191, N-{4-[4-amino-7-(3-morpholin-4-ylpropyl)pyrrolo[2,1-f][1,2,4]triazin-5-yl]-2-fluorophenyl}-N′-[4-(trifluoromethyl)pyridin-2-yl]urea]
23 | < 10 |  | Nc1ncnn2c(CCCN3CCCOCC3)cc(-c3ccc(NC(=O)Nc4cc(C(F)(F)F)ccc4F)c(F)c3)c12 [Example 193, N-(4-{4-amino-7-[3-(1,4-oxazepan-4-yl)propyl]pyrrolo[2,1-f][1,2,4]triazin-5-yl}-2-fluorophenyl)-N′-[2-fluoro-5-(trifluoromethyl)phenyl]urea]
24 | < 10 |  | CN(C)CCCc1cc(-c2ccc(NC(=O)Nc3cc(C(F)(F)F)ccc3F)c(F)c2)c2c(N)ncnn12 [Example 194, N-(4-{4-amino-7-[3-(dimethylamino)propyl]pyrrolo[2,1-f][1,2,4]triazin-5-yl}-2-fluorophenyl)-N′-[2-fluoro-5-(trifluoromethyl)phenyl]urea]
25 | < 10 |  | Nc1ncnn2c(CCCN3CCNC(=O)C3)cc(-c3ccc(NC(=O)Nc4cc(C(F)(F)F)ccc4F)c(F)c3)c12 [Example 195, N-(4-{4-amino-7-[3-(3-oxopiperazin-1-yl)propyl]pyrrolo[2,1-f][1,2,4]triazin-5-yl}-2-fluorophenyl)-N′-[2-fluoro-5-(trifluoromethyl)phenyl]urea]
26 | < 10 |  | CS(=O)(=O)N1CCC(c2cc(-c3ccc(NC(=O)Nc4cc(C(F)(F)F)ccc4F)c(F)c3)c3c(N)ncnn23)C1 (stereo not shown) [Example 201, N-(4-{4-amino-7-[1-(methylsulfonyl)pyrrolidin-3-yl]pyrrolo[2,1-f][1,2,4]triazin-5-yl}-2-fluorophenyl)-N′-[2-fluoro-5-(trifluoromethyl)phenyl]urea]
27 | < 10 |  | CC(=O)N1CCC(c2cc(-c3ccc(NC(=O)Nc4cc(C(F)(F)F)ccc4F)c(F)c3)c3c(N)ncnn23)C1 (stereo not shown) [Example 202, N-{4-[7-(1-acetylpyrrolidin-3-yl)-4-aminopyrrolo[2,1-f][1,2,4]triazin-5-yl]-2-fluorophenyl}-N′-[2-fluoro-5-(trifluoromethyl)phenyl]urea]
